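Growth conditions: 96-well plates. Treatment: test compound, 48 hours, 5 concentrations. Analysis: linear interpolation between bracketing concentrations; unreached endpoints set to highest concentration. The concentration for 50% growth inhibition is given as GI50.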 Active and inactive are the calls of the source. No stated cut-off is given here; in the data, active = GI50 up to about 1.1 µM and inactive = higher. Bounds are passed on as bounds.

Test systems include DLD-1; HL-60; HOP-92; HT-29; NCI-H226; NCI-H460; OVCAR-3; OVCAR-4; SF-268; SK-MEL-5; SK-OV-3; SW-620; TK-10; U-251; A498; COLO 205; HCT-15; NCI/ADR-RES; SR; T47D.
Holding throughout (assay): NCI-60 cell line screen, 48 h

`COc1cccc2c1C(=O)c1c(O)c3c(c(O)c1C2=O)C[C@@](O)(C(=O)CO)CC3OC1CC(N(C)CCOCC(OC(C)=O)OC(C)=O)C(O)C(C)O1` (some centres undefined): the GI50 with DLD-1, in the assay on HL-60, with HOP-92, in the assay with HT-29, with NCI-H226 and in the assay with NCI-H460 was > 0.01 µM (active) throughout. Also, the GI50 with OVCAR-3, in the assay on OVCAR-4, in the assay on SF-268, with SK-MEL-5, in the assay on SK-OV-3 and in the assay on SW-620 was > 0.01 µM (active) in each case. The GI50 in the assay with TK-10 and with U-251 was > 0.01 µM (active) each time.

As to `Cc1ccc(NC(=O)CC2SC(Nc3cccc(Cl)c3C)=NC2=O)cc1` (centres undefined), the GI50 is 33 µM (inactive) in the assay on A498; 64.7 µM (inactive) with COLO 205; 48.8 µM (inactive) in the assay with DLD-1; 76.9 µM in the assay with HCT-15; > 100 µM (inactive) with HT-29; 96.6 µM (inactive) in the assay on NCI-H460. For the same molecule, the GI50 is 23 µM (inactive) in the assay on OVCAR-3; 28.7 µM (inactive) with OVCAR-4; 37 µM (inactive) in the assay with SF-268; 29.6 µM (inactive) in the assay on SK-MEL-5; > 100 µM (inactive) with SK-OV-3; 68.5 µM (inactive) with SW-620. Also, the results for the GI50 in the assay on TK-10 and in the assay on U-251 were 92 µM (inactive) and 50.4 µM (inactive), respectively.

Regarding `CC(C)Oc1cccc(N2C(CCc3c[nH]c4ccc(Br)cc34)=NS(=O)(=O)c3cnccc32)c1`, the GI50 in the assay with A498 was 35.4 µM (inactive); in the assay with COLO 205, 17.9 µM (inactive); in the assay with HCT-15, 30.8 µM; in the assay with HL-60, 23.3 µM (inactive); in the assay with HOP-92, 17.5 µM (inactive); in the assay on HT-29, 26.2 µM (inactive). In addition, the GI50 in the assay on NCI-H226 is 37.3 µM (inactive); with NCI-H460, 35.1 µM (inactive); in the assay with NCI/ADR-RES, 44 µM (inactive); in the assay with OVCAR-3 it was 51.3 µM (inactive); with OVCAR-4 it was 27.5 µM (inactive); with SF-268, 69.8 µM (inactive). The GI50 in the assay with SK-MEL-5 was 35 µM (inactive); with SK-OV-3, 36.8 µM (inactive); in the assay with SR it was 35.3 µM (inactive); in the assay on SW-620, 72.3 µM (inactive); with T47D, 21.2 µM (inactive); in the assay with TK-10, 53.8 µM (inactive). Besides, the GI50 in the assay on U-251 is 64.6 µM (inactive).

Turning to `Nc1ccccc1SC(C[N+](=O)[O-])c1ccc2c(c1)OCO2` (centres undefined), the GI50 with A498 was 8.39 µM (inactive); in the assay with COLO 205, 3.71 µM (inactive); in the assay on HCT-15 it was 3.01 µM; in the assay on HL-60, 1.9 µM (inactive); with HOP-92, 15.6 µM (inactive); in the assay with HT-29, 1.89 µM (inactive). The GI50 with NCI-H226 is 11.2 µM (inactive); with NCI-H460, 2.12 µM (inactive); with NCI/ADR-RES it was 20.5 µM (inactive); with OVCAR-3 it was 3.28 µM (inactive); in the assay with OVCAR-4, 11.6 µM (inactive); in the assay with SF-268, 7.55 µM (inactive). Also, the GI50 was 3.26 µM (inactive) in the assay on SK-MEL-5; 4.54 µM (inactive) with SK-OV-3; 1.91 µM (inactive) with SR; 2.31 µM (inactive) in the assay on SW-620; 4.18 µM (inactive) in the assay with T47D; 2.63 µM (inactive) in the assay with TK-10. In addition, the GI50 in the assay on U-251 was 2.64 µM (inactive).

Turning to `COC(=O)c1c(O)ccc2c1c1c(n2CCc2ccccc2)C(=O)c2ccccc2C1=O`, the GI50 with A498 was 16.6 µM (inactive); in the assay with COLO 205, 1.83 µM (inactive); in the assay with HCT-15, 9.35 µM; with HL-60, 17.8 µM (inactive); in the assay with HOP-92, 16.3 µM (inactive); in the assay with HT-29, 11.8 µM (inactive). Also, the GI50 in the assay on NCI-H226 is 14.6 µM (inactive); with NCI-H460, 4.11 µM (inactive); in the assay on NCI/ADR-RES, 6.9 µM (inactive); in the assay on OVCAR-3 it was 6.7 µM (inactive); in the assay with OVCAR-4, 6.79 µM (inactive); with SF-268, 12.7 µM (inactive). The GI50 is 12.5 µM (inactive) in the assay on SK-MEL-5; 18.3 µM (inactive) in the assay on SK-OV-3; 5.28 µM (inactive) in the assay with SR; 13.2 µM (inactive) in the assay on SW-620; 5.47 µM (inactive) in the assay with T47D; 11.6 µM (inactive) with TK-10. Moreover, in the assay with U-251, the GI50 was 12.7 µM (inactive).

For `CCOC(=O)C1=C(C)NC(C)=C(C(=O)OCCNC(=O)c2ccc(N=[N+]=[N-])cc2)C1c1ccccc1C(F)(F)F` (centres undefined) [AZIDOPINE], the GI50 in the assay with A498 is > 10 µM (inactive); with COLO 205 it was 6.25 µM (inactive); in the assay with HCT-15, 8.45 µM; in the assay on HL-60, 7.66 µM (inactive); in the assay with HOP-92 it was 2.01 µM (inactive); with HT-29 it was 9.46 µM (inactive). For the same molecule, the GI50 with NCI-H226 was 15 µM (inactive); in the assay with NCI-H460, 9.12 µM (inactive); with NCI/ADR-RES, 8.28 µM (inactive); in the assay on OVCAR-3, 9.06 µM (inactive); in the assay on OVCAR-4 it was 12.2 µM (inactive); in the assay with SF-268 it was 10.3 µM (inactive). In addition, the GI50 with SK-MEL-5 was 7.85 µM (inactive); in the assay with SK-OV-3 it was 13.3 µM (inactive); in the assay with SR it was 4.44 µM (inactive); with SW-620, 15.3 µM (inactive); with T47D it was 8.93 µM (inactive); with TK-10, 8.22 µM (inactive). In addition, in the assay on U-251, the GI50 is 10.9 µM (inactive).

`O=C1/C(=C/c2ccc(Cl)cc2)N=C(c2ccccc2)N1c1ccc(S(=O)(=O)Nc2nccs2)cc1`: the GI50 is 43.6 µM (inactive) in the assay on A498; 20.6 µM (inactive) in the assay with COLO 205; 37.5 µM with HCT-15; 30.5 µM (inactive) in the assay with HL-60; 28.9 µM (inactive) in the assay on HOP-92; 21.9 µM (inactive) with HT-29. Besides, the GI50 is 52.1 µM (inactive) in the assay on NCI-H226; 57.1 µM (inactive) with NCI-H460; 60.5 µM (inactive) in the assay with NCI/ADR-RES; 30.5 µM (inactive) in the assay with OVCAR-3; 50.8 µM (inactive) with OVCAR-4; 50.8 µM (inactive) in the assay on SF-268. In addition, the GI50 is 23.1 µM (inactive) with SK-MEL-5; > 100 µM (inactive) in the assay on SK-OV-3; 32.7 µM (inactive) with SR; 39.8 µM (inactive) with SW-620; 21.7 µM (inactive) in the assay on T47D; 70.5 µM (inactive) with TK-10. The GI50 in the assay with U-251 is 36.2 µM (inactive).

For the molecule `CC#CC(O)(C(=O)OC1CCCN(C)C1)C1=CC=CCC1` (centres undefined), the GI50 with A498 is > 100 µM (inactive); in the assay on COLO 205, > 100 µM (inactive); in the assay with HCT-15, > 100 µM; in the assay with HL-60, > 100 µM (inactive); in the assay on HOP-92, > 100 µM (inactive); in the assay with HT-29, > 100 µM (inactive). The GI50 was > 100 µM (inactive) in the assay on NCI-H226; > 100 µM (inactive) with NCI-H460; 0.49 µM (active) in the assay with NCI/ADR-RES; > 100 µM (inactive) with OVCAR-3; > 100 µM (inactive) in the assay on OVCAR-4; > 100 µM (inactive) with SF-268. Further, the GI50 with SK-MEL-5, in the assay with SK-OV-3, in the assay on SR, in the assay on SW-620, in the assay with T47D and in the assay with TK-10 was > 100 µM (inactive) in each case. Moreover, the GI50 in the assay on U-251 was > 100 µM (inactive).

As for `Cc1cc(C)nc(NS(=O)(=O)c2ccc(NC(=O)c3cc([N+](=O)[O-])cc([N+](=O)[O-])c3)cc2)n1`, the GI50 was > 100 µM (inactive) with A498; 18.3 µM (inactive) in the assay with COLO 205; > 100 µM with HCT-15; 30.1 µM (inactive) with HL-60; 42.5 µM (inactive) with HOP-92; 31.4 µM (inactive) in the assay on HT-29. Further, the GI50 was > 100 µM (inactive) in the assay on NCI-H226; 86.7 µM (inactive) with NCI-H460; > 100 µM (inactive) with NCI/ADR-RES; 30.5 µM (inactive) in the assay with OVCAR-3; 22.9 µM (inactive) with OVCAR-4; 44.4 µM (inactive) in the assay on SF-268. The GI50 in the assay on SK-MEL-5 is 95.3 µM (inactive); in the assay on SK-OV-3, > 100 µM (inactive); with SR, 0.0755 µM (active); in the assay on SW-620, > 100 µM (inactive); in the assay on T47D, 49.4 µM (inactive); in the assay with TK-10, > 100 µM (inactive). Further, the GI50 with U-251 was 84.3 µM (inactive).

In the case of `CC(=O)O[C@H]1CC[C@@]2(C)C(=CC[C@H]3[C@@H]4C[C@H](N5CCOCC5)[C@H](OC(C)=O)[C@@]4(C)CC[C@@H]32)C1`, the GI50 with A498 was > 100 µM (inactive); in the assay on COLO 205 it was > 100 µM (inactive); in the assay on HCT-15, > 100 µM; in the assay on HL-60, 54.2 µM (inactive); in the assay on HOP-92, > 100 µM (inactive); in the assay on HT-29, 32.4 µM (inactive). Further, the GI50 in the assay on NCI-H226, in the assay on NCI-H460, with NCI/ADR-RES, in the assay on OVCAR-3, with OVCAR-4 and with SF-268 was > 100 µM (inactive) in each case. Moreover, the GI50 with SK-MEL-5 is > 100 µM (inactive); with SK-OV-3, > 100 µM (inactive); in the assay with SR, 86.5 µM (inactive); in the assay with SW-620, > 100 µM (inactive); in the assay with T47D, > 100 µM (inactive); in the assay with TK-10, > 100 µM (inactive). The GI50 with U-251 is > 100 µM (inactive).

Take `CCCC(=O)N(C(=O)CCC)C1=C(Cl)C(=O)c2ccccc2C1=O`: the GI50 is 18.3 µM (inactive) in the assay on A498; 2.91 µM (inactive) with COLO 205; 2.1 µM in the assay with HCT-15; 0.574 µM (active) with HL-60; 4.01 µM (inactive) in the assay with HOP-92; 8.51 µM (inactive) in the assay with HT-29. For the same molecule, the GI50 was 8.38 µM (inactive) in the assay with NCI-H226; 5.22 µM (inactive) with NCI-H460; 3.86 µM (inactive) with NCI/ADR-RES; 3.21 µM (inactive) in the assay on OVCAR-3; 5.52 µM (inactive) with OVCAR-4; 4.32 µM (inactive) in the assay on SF-268. The GI50 with SK-MEL-5 is 3.1 µM (inactive); with SK-OV-3, 15.5 µM (inactive); in the assay on SR, 3.02 µM (inactive); in the assay on SW-620 it was 2.87 µM (inactive); in the assay on T47D, 2.33 µM (inactive); in the assay on TK-10, 4.1 µM (inactive). Also, the GI50 in the assay on U-251 was 4.08 µM (inactive).

The record behind these values is ChEMBL document CHEMBL1201862, “PubChem BioAssay data set” (2004).
